Source: US9617263B2, “Phenyl-triazolo-pyridine compounds” (Eli Lilly and Company, priority 2014, dated 2017)

Tests used:
[1] = molecular target: T1, PPARδ (Homo sapiens, UniProt Q03181); assay: Gal4 PPARδ reporter (CTF) functional assay in CV1 cells; type: cell-based; details: examined up to 10 M; versus 10 μM PPAR agonist reference compound
T1 construct: expressed in transfected cells; host or cells: CV1 (African green monkey kidney)
T1 sequence (Q03181 211-439 limits assumed): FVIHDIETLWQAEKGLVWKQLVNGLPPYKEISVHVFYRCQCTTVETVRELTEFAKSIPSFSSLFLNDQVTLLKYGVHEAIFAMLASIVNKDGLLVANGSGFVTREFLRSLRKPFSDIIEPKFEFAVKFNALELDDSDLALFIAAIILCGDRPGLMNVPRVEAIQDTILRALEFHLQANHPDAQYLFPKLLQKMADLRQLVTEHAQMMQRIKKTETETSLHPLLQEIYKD
Method: Because GPR40 is known to be activated by ligands to PPARγ, exemplified compounds are examined in Gal4 PPARα, Gal4 PPARδ, and PPARγ reporter assays to determine the selectivity of exemplified compounds for PPAR receptors. CV1 cells, which are derived from the renal tissue of an African green monkey, are transfected with various receptor and reporter plasmids using Fugene. […] After 24 hours incubation with compounds, cells are lysed and luciferase activity is determined as a measure of receptor activation by luminescence. […] The maximum percent stimulation is determined versus maximum stimulation obtained with 10 μM of an appropriate PPAR agonist reference compound, 2-methyl-2-(4-{2-methyl-3-[2-(phenylcarbonyl)-4-(trifluoromethoxy)phenoxy]propoxy}phenoxy)propanoic acid. […] Efficacy was negative for PPARα, PPARδ, and PPARγ is detected with the compound of Example 1 when examined up to […] in the specific PPAR co-transfection (CTF) functional assays described above. […]

[2] = molecular target: T2, human GPR40 (hGPR40) (Homo sapiens, UniProt O14842); assay: Radioligand competition binding with [3H]TAK-875, HEK293 membranes; details: 5 nM [3H]TAK-875; Cheng-Prusoff; Mean±SEM
T2 construct: expressed in transfected cells; host or cells: HEK293 (membranes)
Excerpt: Competition curves are plotted as the percent specific inhibition versus concentration of compound and analyzed using a four parameter nonlinear regression fit with variable slope. […] See Cheng, Y. and Prusoff, W. H. (1973) “Relationship between the inhibition constant (Ki) and the concentration of inhibitor which causes 50 percent inhibition (IC50) of an enzymatic reaction,” Biochem Pharmacol 22(23):3099-3108. (Mean±SEM; SEM=standard error of the mean.).

[3] = system: Zucker fa/fa rats; assay: Acute oral glucose tolerance test (OGTT); type: in vivo, rat
Method: OGTTs are performed in Zucker fa/fa rats, a rodent model of insulin resistance, after 1 and 21 days of orally administered material at 1.0, 3.0 and 10 mg/kg. TAK875 at 1 mg/kg served as the positive control. The OGTTs are performed one hour post compound administration with blood samples taken for determination of glucose and insulin levels at 10, 20, 40, 60, and 120 minutes post glucose administration.

[4] = molecular target: T3, mGPR40 (Mus musculus, UniProt Q76JU9); assay: Mouse beta-arrestin agonist assay with 1% FBS (PathHunter, U2OS mFFAR1); type: cell-based
T3 construct: host or cells: U2OS
Excerpt: Human embryonic kidney (hEK293)-hFFAR1 cells are purchased from DiscoveRx. Human osteosarcoma (U2OS) cells expressing mFFAR1 are developed by DiscoveRX. These cells co-express the Prolink (PK)-tagged GPR40 and the Enzyme Acceptor (EA)-tagged beta-arrestin fusion proteins. If activation of the GPR40 stimulates beta-arrestin recruitment, it would force complementation of the beta galactosidase (B-gal) enzyme fragments, forming a B-gal enzyme that generates a chemiluminescent signal using the DiscoveRx PathHunter detection kit. Cells are incubated overnight at 5,000 cells/well in 384 well plates in culture media containing 1% FBS (fetal bovine serum). Serial diluted compounds in DMSO (2× dilutions to generate 20 concentrations) are step down diluted in culture media containing 1% FBS (fetal bovine serum) and added to cells with a final top concentration starting of 100 μM. After addition of compounds, cells are incubated for 90 min at 37° C. in 5% CO2 incubator, and DiscoveRX kit detection reagents are added. Measurement of the chemiluminescent signal is ascertained with the Envision reader, after a 1-hour incubation at room temperature. Data are fit to a 4 parameter-fit logistics to determine EC50 values; % activity is measured versus maximum response to TAK875 at 1 μM.

T3 sequence (Q76JU9 whole entry): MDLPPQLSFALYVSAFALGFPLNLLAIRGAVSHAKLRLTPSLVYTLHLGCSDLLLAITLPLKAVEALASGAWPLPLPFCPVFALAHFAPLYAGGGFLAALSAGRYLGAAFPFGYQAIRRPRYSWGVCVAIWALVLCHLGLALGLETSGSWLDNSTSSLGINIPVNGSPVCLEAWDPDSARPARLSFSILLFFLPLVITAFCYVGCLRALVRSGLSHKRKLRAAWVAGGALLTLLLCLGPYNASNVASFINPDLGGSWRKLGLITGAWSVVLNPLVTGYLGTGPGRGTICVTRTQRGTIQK
T3 sequence (P32121 whole entry partner): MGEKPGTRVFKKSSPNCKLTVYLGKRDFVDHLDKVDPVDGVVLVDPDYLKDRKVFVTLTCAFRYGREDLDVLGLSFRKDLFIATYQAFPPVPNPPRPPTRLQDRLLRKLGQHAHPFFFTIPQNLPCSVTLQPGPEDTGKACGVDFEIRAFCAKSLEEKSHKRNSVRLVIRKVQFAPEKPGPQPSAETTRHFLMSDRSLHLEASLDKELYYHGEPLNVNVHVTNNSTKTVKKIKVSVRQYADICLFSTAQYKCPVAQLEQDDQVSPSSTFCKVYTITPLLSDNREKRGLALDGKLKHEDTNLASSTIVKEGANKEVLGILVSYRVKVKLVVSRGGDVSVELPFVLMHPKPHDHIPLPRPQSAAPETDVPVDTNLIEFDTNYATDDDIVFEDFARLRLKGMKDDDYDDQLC
T2 sequence (O14842 whole entry): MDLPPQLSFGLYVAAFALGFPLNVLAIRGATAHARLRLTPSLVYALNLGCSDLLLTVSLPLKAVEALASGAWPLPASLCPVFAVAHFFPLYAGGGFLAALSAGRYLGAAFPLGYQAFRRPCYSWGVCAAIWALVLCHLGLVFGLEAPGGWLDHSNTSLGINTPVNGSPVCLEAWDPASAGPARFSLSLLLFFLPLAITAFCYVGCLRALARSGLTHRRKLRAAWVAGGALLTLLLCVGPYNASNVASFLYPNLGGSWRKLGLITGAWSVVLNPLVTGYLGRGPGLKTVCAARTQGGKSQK

CC#C[C@@H](CC(=O)O)c1ccc(OCc2cc(-c3ccccc3C)cn3ncnc23)cc1 [Example 1, (S)-3-[4-(6-o-Tolyl-[1,2,4]triazolo[1,5-a]pyridin-8-ylmethoxy)-phenyl]-hex-4-ynoic acid]
Efficacy for PPARδ [1]: negative (Efficacy of <20% is considered negative)
Ki [2]: 24.6 nM
ED90 for glucose lowering ([3]; oral): 3.3 mg/kg
Insulin AUCs during the OGTTs ([3]; oral 1, 3, 10 mg/kg, values not statistically significant): dose dependent elevation
AUCs for glucose lowering ([3]; oral, Example 1 at 1, 3 and 10 mg/kg, TAK875 at 1 mg/kg, p<0.05): statistically significant
EC50 ([4]; 1% FBS, 90 min, read-out: mGPR40 b-arrestin EC50): 4.02 nM
mGPR40 b-arrestin % stimulation max (FA) ([4]; versus maximum response to TAK875 at 1 μM): 160%
